Test results as given in the NIST ThermoML archive (doi:10.1016/j.jct.2018.09.027).
± gives the expanded uncertainty stated by the source.

Settings: Crystal; for vapor or sublimation pressure: Calculated from knudsen effusion weight loss

O=C(O)c1cc(O)c(O)c(O)c1 [3,4,5-trihydroxybenzoic acid]
Settings | Normal melting temperature [°C] | vapor or sublimation pressure [kPa]
432.88 K | – | 9.61e-05 ± 2e-05
434.44 K | – | 0.0001197 ± 2e-05
436.46 K | – | 0.0001349 ± 2.1e-05
438.62 K | – | 0.0001688 ± 2.1e-05
440.5 K | – | 0.0001779 ± 2.1e-05
442.58 K | – | 0.0002341 ± 2.2e-05
444.57 K | – | 0.000257 ± 2.2e-05
446.54 K | – | 0.000313 ± 2.3e-05
448.7 K | – | 0.0003927 ± 2.4e-05
450.78 K | – | 0.0004674 ± 2.6e-05
452.6 K | – | 0.0005635 ± 2.8e-05
454.63 K | – | 0.0006284 ± 3e-05
456.47 K | – | 0.0008057 ± 3.5e-05
458.78 K | – | 0.0009376 ± 3.9e-05
DTA | 263.5 ± 0.7 | –
